Key:
[1] = Solubility of α-hederin in 1,2-propanediol; type: physicochemical
[2] = Stability of α-hederin solutions on storage (visual); type: physicochemical; details: for stability of solution: 10 wt.% α-hederin in 85.5 wt.% 1,2-Propanediol and 4.5 wt.% Benzyl alcohol
[3] = Plasma/blood level after oral administration; type: in vivo; details: treated sheep
Text: The Applicant has addressed the problems of the prior art by identifying a natural compound present in ivy (Hedera) that is effective at treating helminth infestations in a mammal. The natural compound is α-hederin, a water soluble pentacyclic triterpenoid saponin. The compound is quite a large molecule and would not be anticipated to be absorbed from the rumen following oral administration, but would be expected to be absorbed from the small intestine. […] This is highly surprising given the low plasma levels of α-hederin in treated sheep.
IVL-11 is a relatively large particle and so would not be anticipated to be absorbed from the rumen following oral administration. Instead, absorption from the small intestine would be predicted.

adult fluke = assay: In-vivo efficacy study: fluke counts at post mortem in infected sheep after oral treatment, compared with untreated control sheep; details: 50 mg/kg
Experimental: Four sheep infected with adult fluke were treated with an IVL-11 oral solution formulation of Table 1: Table 1
The solution was orally administered to the sheep to provide a dosage of α-hederin of 50 mg/kg and then worm counts compared to counts in untreated control sheep. Table 2: summary of efficacy following treatment of four sheep with IVL-11 orally at 50mg/kg compared with fluke counts in untreated control sheep

With α-hederin [IVL-11] the “solubility in 1,2-propanediol” value ([1]; 5% α-hederin in 1,2-propanediol) was “soluble”, the “solubility in 1,2-propanediol” value ([1]; 10% α-hederin in 1,2-propanediol) was “soluble” and the “stability (appearance) of solution in 1,2-propanediol” value (shortened to “stability (appearance) of solution”) ([2]; 5 % solution, 13 days at room temperature) was “cloudy at the top”. The “stability (appearance) of solution” value ([2]; 10 % solution, 13 days at room temperature) was “became cloudy”, the stability of solution ([2]; 6 months at 5°C) was “stable” and the stability of solution ([2]; 6 months at room temperature) was “stable”. The “stability (appearance) of solution” value ([2]; 35°C, over 3 weeks) was “no visible changes”, the “plasma / blood levels following administration in vivo” value [3] was “low” and the “Arithmetic mean number of fluke at post mortem” value (adult fluke; oral solution, 4 sheep) was 83. The “% efficacy (reduction in average fluke numbers compared to the control sheep)” value (adult fluke; oral, vs untreated control sheep) was 21.6%.
